Where no end group is shown, it is not given here.
T1: FPRL1 (Homo sapiens, UniProt P25090)
T1 sequence (P25090 1-351): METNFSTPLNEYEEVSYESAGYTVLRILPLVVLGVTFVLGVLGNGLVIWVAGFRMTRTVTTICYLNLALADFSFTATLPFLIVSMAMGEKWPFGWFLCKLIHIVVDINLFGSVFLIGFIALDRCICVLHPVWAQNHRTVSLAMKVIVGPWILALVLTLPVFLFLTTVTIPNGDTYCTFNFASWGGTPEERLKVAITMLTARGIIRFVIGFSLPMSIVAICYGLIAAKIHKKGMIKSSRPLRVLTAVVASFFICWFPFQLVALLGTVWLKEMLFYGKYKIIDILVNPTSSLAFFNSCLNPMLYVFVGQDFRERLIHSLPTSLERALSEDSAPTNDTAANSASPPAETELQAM

T2: CCR1 (Homo sapiens, UniProt P32246)
T2 sequence (P32246 1-355): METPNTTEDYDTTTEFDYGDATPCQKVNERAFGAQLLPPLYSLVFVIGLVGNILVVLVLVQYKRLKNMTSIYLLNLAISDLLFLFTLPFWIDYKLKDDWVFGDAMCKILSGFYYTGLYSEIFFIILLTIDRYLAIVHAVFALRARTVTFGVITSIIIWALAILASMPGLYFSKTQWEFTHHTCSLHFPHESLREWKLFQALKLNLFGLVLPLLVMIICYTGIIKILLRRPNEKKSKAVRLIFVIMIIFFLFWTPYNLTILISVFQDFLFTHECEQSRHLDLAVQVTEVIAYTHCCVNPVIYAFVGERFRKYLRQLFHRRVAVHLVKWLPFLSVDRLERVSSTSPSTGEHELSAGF

B1: CCL23β Δ24: truncated form of CCL23β lacking the 24-residue N-terminal domain, beginning with the SHAAGtide insertion (protein, listed as Homo sapiens)
chain: MLWRRKIGPQMTLSHAAGFHATSADCCISYTPRSIPCSLLESYFETNSECSKPGVIFLTKKGRRFCANPSDKQVQVCMRMLKLDTRIKTRKN

Columns and labels:
[1] = molecular target: T1, FPRL1; experiment: Functional assays on FPRL1 (receptor signaling and chemotaxis); type: cell-based; design: endogenous in cells; host or cells: human CD14+ monocytes from buffy coats
Method: (§1) Receptor signaling assay. For individual measurements, cells were loaded for 45 min at room temperature with 2 μM indo-1/AM (Invitrogen, Carlsbad Calif.) in culture medium, then washed with 10 ml PBS and resuspended at 10^6 cells/ml in HBSS containing 0.1% BSA. Cytosolic calcium levels were determined using a Photon Technology International fluorimeter (excitation at 350 nm, ratio of dual emission at 400 and 490 nm). For measuring calcium dose responses, cells were analyzed with a Fluorometric Imaging Plate Reader 384 (FLIPR^384) (Molecular Devices, Sunnyvale, Calif.). Cells were loaded for 1 hr at 37° C. with 5 μM fluo-4 in HBSS with 0.1% BSA, then washed, transferred to black-wall 96-well plates, and subsequently excited at 505 nm with emission recorded at 530 nm with a standard protocol provided by the manufacture. Cells were stimulated with agonists 20 s after the monitoring of fluorescence began. Data were analyzed and plotted in arbitrary units of fluorescence using Prism. To ensure that responses were specific to FPRL1, we utilized a selective small-molecule antagonist of human FPRL1, generated by ChemoCentryx, which was optimized from a high throughput compound library screening approach.
Chemotaxis assays. L1.2-CCR1 and L1.2-FPRL1 transfectants, monocytes and neutrophils were collected by centrifugation and resuspended in HBSS with 0.1% BSA. The assays were performed in 96-well ChemoTx® microplates (Neuroprobe, Rockville, Md.). Chemokines were diluted in HBSS with 0.1% BSA and added to the lower wells (final volume 29 μL), then 20 μL of cell suspension (5×10^6 cells/mL for monocytes; 2.5×10^6 cells/mL for neutrophils) were added to the polycarbonate filters (5 μm pore size for monocytes and FPRL1 transfectants; 3 μm pore size for neutrophils). After incubation for 90 min (37° C., 100% humidity, 5% CO2), the filters were removed and the cells that migrated into the lower chamber were quantified by using the CyQuant cell proliferation assay kit (Molecular Probes, Oreg.).

[2] = system: leukocytes (neutrophils); experiment: Leukocyte recruitment to skin after intradermal injection; type: in vivo; conditions: 2 μg intradermally, c57Bl/6 and BALB/c mice, 6 hours
Method: Immunohistochemistry. BALB/c and c57Bl/6 mice were injected intradermally with 50 μl sterile saline with or without 2 μg SHAAGtide. 6 hours later, mice were euthanized and the skin surrounding the injection site was excised. After immersion in 10% neutral-buffered formalin for 18-24 hours, the skin biopsy was processed in graded alcohols and embedded in paraffin wax. 5 μm-wide sections were cut on a Leica microtome, transferred to glass slides, deparaffinized in xylenes, and hydrated through graded alcohols. The sections were either stained with hematoxylin and eosin (Sigma, St. Louis Mo.) or stained immunohistochemically for neutrophils as follows. The slides were immersed in Target Retrieval solution (Dako, Carpinteria Calif.) for 20 minutes at 90° C., rinsed with water and immersed in tris-buffered saline (TBS) containing 2% bovine serum albumin for 20 minutes. The sections were then exposed to rat anti-mouse neutrophil monoclonal antibody (Accurate Chemical and Scientific, Westbury N.Y.) or rat IgG2a isotype control antibody (BD Pharmingen, San Diego Calif.) for 1 hour, rinsed with TBS, and exposed to biotinylated goat anti-rat Ig (Dako) for 30 minutes. The sections were then rinsed with TBS, stained with the ABC-AP and fuchsin reagents (both from Dako), rinsed with water, and counterstained with hematoxylin for 2 minutes. […]

[3] = molecular target: T2, CCR1; experiment: Calcium mobilization in murine L1.2 cells expressing human CCR1; type: cell-based; design: expressed in transfected cells; host or cells: murine L1.2 cells (G-418 selected transfectant); conditions: L1.2 cells stably expressing human CCR1
Method: Calcium Mobilization Assay. Cells were loaded for 1 hour with 2 μM indo-1/AM dye (Molecular Probes, Eugene, Oreg.) in culture medium, then washed with 10 ml PBS and resuspended at 10^6/ml in HBSS containing 1% FBS. Cytosolic calcium responses were determined using a Photon Technology International (Lawrenceville, N.J.) fluorimeter, with excitation at 350 nm and dual emission at 400 and 490 nm. Alternatively, cells were loaded with 5 μg/ml Fluo-4 AM dye (Molecular Probes, Eugene, Oreg.), then washed and analyzed on a Fluorometric Imaging Plate Reader 384 (FLIPR^384 Molecular Devices, Sunnyvale, Calif.), with 505 nm excitation and 530 nm emission.
as §1

Row | Molecule | fold more potent than all other natural agents posited to act on FPRL1 [1] [fold] | EC50 ([1]; isolated peptide) [nM] | potency and efficacy versus other purported natural FPRL1 ligands (SAA, beta-amyloid protein 42, lipoxin A4, fMLP) ([1]; receptor signaling and chemotaxis assays) | mice with recruitment of leukocytes (primarily neutrophils) into the subcutis region of the dermis [2] | calcium mobilization in the CCR1 transfectant [3]
1 | MLWRRKIGPQMTLSHAAG [SHAAGtide] | 50 to 100 | 10 to 30 | more potent and efficacious | 6 of 6 | 
2 | B1 |  |  |  |  | effective at inducing calcium mobilization

Source: patent publication US7572600B2, “Enzymatic activities in chemokine-mediated inflammation” (Chemocentryx, Inc., priority 2004, dated 2009)
